Structures can show the parent of a compound that is named as a salt.
How the values were obtained:
[1] = target: T1, human muscarinic acetylcholine M3 receptor (M3-ACh) (Homo sapiens, UniProt P20309); assay: Muscarinic 3 Receptor Binding Assay ([3H]NMS competition, SPA); conditions: [3H]NMS 0.1 nM, CHO-K1 cell membranes, 16 hours at room temperature; read-out: M3 pIC50 (converted)
T1 construct: expressed in transfected cells; host or cells: CHO-K1 (Chinese Hamster Ovary) cell membranes
Method: Muscarinic 3 Receptor Binding Assay
The affinity (pIC50) of compounds binding to the M3 receptor is determined by competition binding of [^3H]N-methyl scopolamine (NMS) to CHO-K1 (Chinese Hamster Ovary) cell membranes expressing the human muscarinic acetylcholine M3 receptor (M3-ACh) in a scintillation proximity assay (SPA) format.
SPA beads are precoated with membranes and then incubated at 2 mg of beads per well with serial dilutions of compounds of the invention, [^3H]NMS at 0.1 nM, quarter Kd (experimentally determined dissociation constant) and assay buffer (20 mM HEPES pH 7.4 containing 5 mM MgCl2). The assay is conducted in a final volume of 200 μL, in the presence of 1% (v/v) dimethyl sulphoxide (DMSO). Total binding of [^3H]NMS is determined in the absence of competing compound and non-specific binding of [^3H]NMS is determined in the presence of 1 μM atropine. The plates are incubated for 16 hours at room temperature and then read on Wallac Microbeta™ using a normalised ^3H protocol. The pIC50, defined as the negative logarithm of the molar concentration of compound required for 50% reduction in specific [^3H]-NMS binding, is determined.

[2] = target: T2, Adrenergic β2 (H292 cells) (Homo sapiens, UniProt P07550); assay: Assay for Adrenergic β2 Mediated cAMP Production (concentration response, AlphaScreen cAMP detection); type: cell-based; conditions: for EC50: cAMP production, 60 minutes at room temperature, 300 μM rolipram, read-out: β2 pEC50 (converted); for β2 Intrinsic activity: fraction relative to the maximum activity determined for formoterol
T2 construct: endogenous in cells; host or cells: H292 cells
T2 sequence (P07550 whole entry): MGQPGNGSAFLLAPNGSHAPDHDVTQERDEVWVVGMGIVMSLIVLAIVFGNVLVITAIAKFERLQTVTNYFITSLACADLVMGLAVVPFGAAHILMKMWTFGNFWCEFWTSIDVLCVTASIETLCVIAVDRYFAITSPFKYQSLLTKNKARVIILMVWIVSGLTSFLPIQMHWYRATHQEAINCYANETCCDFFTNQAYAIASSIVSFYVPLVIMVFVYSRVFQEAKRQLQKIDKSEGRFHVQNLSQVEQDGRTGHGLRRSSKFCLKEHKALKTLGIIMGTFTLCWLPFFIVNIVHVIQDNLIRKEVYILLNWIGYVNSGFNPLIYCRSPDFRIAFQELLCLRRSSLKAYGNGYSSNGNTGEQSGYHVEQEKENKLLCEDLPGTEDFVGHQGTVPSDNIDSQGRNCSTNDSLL
Method: Assay for Adrenergic β2 Mediated Camp Production
H292 cells are grown in 225 cm2 flasks incubator at 37° C., 5% CO2 in RPMI medium containing 10% (v/v) FBS (foetal bovine serum) and 2 mM L-glutamine.
Adherent H292 cells are removed from tissue culture flasks by treatment with Accutase™ cell detachment solution for 15 minutes. Flasks are incubated for 15 minutes in a humidified incubator at 37° C., 5% CO2. Detached cells are re-suspended in RPMI media (containing 10% (v/v) FBS and 2 mM L-glutamine) at 0.1×10^6 cells per mL. 10000 cells in 100 μL are added to each well of a tissue-culture-treated 96-well plate and the cells incubated overnight in a humidified incubator at 37° C., 5% CO2. The culture media is removed and cells are washed twice with 100 μL assay buffer and replaced with 50 μL assay buffer (HBSS solution containing 10 mM HEPES pH7.4 and 5 mM glucose). Cells are rested at room temperature for 20 minutes after which time 25 μL of rolipram (1.2 mM made up in assay buffer containing 2.4% (v/v) dimethylsulphoxide) is added. Cells are incubated with rolipram for 10 minutes after which time test compounds are added and the cells are incubated for 60 minutes at room temperature. The final rolipram concentration in the assay is 300 μM and final vehicle concentration is 1% (v/v) dimethylsulphoxide. The reaction is stopped by removing supernatants, washing once with 100 μL assay buffer and replacing with 50 μL lysis buffer. The cell monolayer is frozen at −80° C. for 30 minutes (or overnight).
AlphaScreen™ cAMP Detection
The concentration of cAMP (cyclic adenosine monophosphate) in the cell lysate is determined using AlphaScreen™ methodology. The frozen cell plate is thawed for 20 minutes on a plate shaker then 10 μL of the cell lysate is transferred to a 96-well white plate. 40 μL of mixed AlphaScreen™ detection beads pre-incubated with biotinylated cAMP, is added to each well and the plate incubated at room temperature for 3 hours in the dark. The AlphaScreen™ signal is measured using an EnVision spectrophotometer (Perkin-Elmer Inc.) with the recommended manufacturer's settings. cAMP concentrations are determined by reference to a calibration curve determined in the same experiment using standard cAMP concentrations. Concentration response curves for agonists are constructed and data is fitted to a four parameter logistic equation to determine both the pEC50 and Intrinsic Activity. Intrinsic Activity is expressed as a fraction relative to the maximum activity determined for formoterol in each experiment.

T1 sequence (P20309 whole entry): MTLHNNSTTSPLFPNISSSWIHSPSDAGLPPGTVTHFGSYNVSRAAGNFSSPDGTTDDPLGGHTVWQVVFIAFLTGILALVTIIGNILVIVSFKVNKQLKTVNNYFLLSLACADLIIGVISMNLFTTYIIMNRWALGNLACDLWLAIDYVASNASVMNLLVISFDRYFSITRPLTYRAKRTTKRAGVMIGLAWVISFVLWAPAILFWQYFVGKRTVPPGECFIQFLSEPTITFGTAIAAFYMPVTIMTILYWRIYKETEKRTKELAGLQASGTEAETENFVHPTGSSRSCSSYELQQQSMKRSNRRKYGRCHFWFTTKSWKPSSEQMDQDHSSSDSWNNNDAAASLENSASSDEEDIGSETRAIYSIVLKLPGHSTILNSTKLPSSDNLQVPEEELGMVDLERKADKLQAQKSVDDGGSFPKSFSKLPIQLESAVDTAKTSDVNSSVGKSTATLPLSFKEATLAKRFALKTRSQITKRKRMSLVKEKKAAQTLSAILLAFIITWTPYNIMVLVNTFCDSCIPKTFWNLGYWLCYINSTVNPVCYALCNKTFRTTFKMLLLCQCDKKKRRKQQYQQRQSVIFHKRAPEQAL

Structure (SMILES): CCc1cc(C(=O)N2CC(C)(C)OC3(CCN(Cc4cccc(CCNC[C@H](O)c5ccc(O)c6[nH]c(=O)ccc56)c4)CC3)C2)cs1 [Example 272, (R)-5-(2-(3-((4-(5-ethylthiophene-3-carbonyl)-2,2-dimethyl-1-oxa-4,9-diazaspiro[5.5]undecan-9-yl)methyl)phenethylamino)-1-hydroxyethyl)-8-hydroxyquinolin-2(1H)-one ditrifluoroacetate]
- IC50 [1]: 794 nM
- EC50 [2]: 10 nM
- β2 Intrinsic activity [2]: 1

Structure (SMILES): CC(C)c1nc(C(=O)N2CC(F)(F)OC3(CCN(Cc4cccc(CCNC[C@H](O)c5ccc(O)c6[nH]c(=O)ccc56)c4)CC3)C2)cs1 [Example 44, (R)-5-(2-(3-((2,2-Difluoro-4-(2-isopropylthiazole-4-carbonyl)-1-oxa-4,9-diazaspiro[5.5]undecan-9-yl)methyl)phenethylamino)-1-hydroxyethyl)-8-hydroxyquinolin-2(1H)-one ditrifluoroacetate]
- IC50 [1]: 3.16 nM
- EC50 [2]: 2.51 nM
- β2 Intrinsic activity [2]: 1

Structure (SMILES): Cc1cc(C(=O)N2CCOC3(CCN(CCOc4ccc(CNC[C@H](O)c5ccc(O)c6[nH]c(=O)sc56)cc4)CC3)C2)cs1 [Example 104, (R)-4-Hydroxy-7-(1-hydroxy-2-(4-(2-(4-(5-methylthiophene-3-carbonyl)-1-oxa-4,9-diazaspiro[5.5]undecan-9-yl)ethoxy)benzylamino)ethyl)benzo[d]thiazol-2(3H)-one formate]
- IC50 [1]: 3.16 nM
- EC50 [2]: 79.4 nM
- β2 Intrinsic activity [2]: 0.9

Structure (SMILES): Cc1ccc(C(=O)N2CCOC3(CCN(Cc4cc(CCNC[C@H](O)c5ccc(O)c6[nH]c(=O)sc56)cs4)CC3)C2)s1 [Example 27, (R)-4-Hydroxy-7-(1-hydroxy-2-(2-(5-((4-(5-methylthiophene-2-carbonyl)-1-oxa-4,9-diazaspiro[5.5]undecan-9-yl)methyl)thiophen-3-yl)ethylamino)ethyl)benzo[d]thiazol-2(3H)-one ditrifluoroacetate]
- IC50 [1]: 2.51 nM
- EC50 [2]: 1.26 nM
- β2 Intrinsic activity [2]: 1

Structure (SMILES): Cc1ccc(C(=O)N2CCOC3(CN(Cc4cccc(CCNC[C@H](O)c5ccc(O)c6[nH]c(=O)sc56)c4)C3)C2)s1 [Example 33, (R)-4-Hydroxy-7-(1-hydroxy-2-(3-((8-(5-methylthiophene-2-carbonyl)-5-oxa-2,8-diazaspiro[3.5]nonan-2-yl)methyl)phenethylamino)ethyl)benzo[d]thiazol-2(3H)-one ditrifluoroacetate]
- IC50 [1]: 12.6 nM
- EC50 [2]: 6.31 nM
- β2 Intrinsic activity [2]: 1

Structure (SMILES): CC(C)c1nc(C(=O)N2CCOC3(CCN(Cc4cccc(CCNC[C@H](O)c5ccc(O)c6[nH]c(=O)sc56)c4F)CC3)C2)cs1 [Example 48, (R)-7-(2-(2-Fluoro-3-((4-(2-isopropylthiazole-4-carbonyl)-1-oxa-4,9-diazaspiro[5.5]undecan-9-yl)methyl)phenethylamino)-1-hydroxyethyl)-4-hydroxybenzo[d]thiazol-2(3H)-one ditrifluoroacetate]
- IC50 [1]: 0.794 nM
- EC50 [2]: 5.01 nM
- β2 Intrinsic activity [2]: 0.9

Structure (SMILES): CC(C)c1nc(C(=O)N2CCOC3(CCN(Cc4cccc(CCNC[C@H](O)c5ccc(O)c6[nH]c(=O)sc56)c4)CC3)C2)cs1 [Example 22, (R)-4-Hydroxy-7-O-hydroxy-2-(3-((4-(2-isopropylthiazole-4-carbonyl)-1-oxa-4,9-diazaspiro[5.5]undecan-9-yl)methyl)phenethylamino)ethyl)benzo[d]thiazol-2(3H)-one ditrifluoroacetate]
- IC50 [1]: 0.126 nM
- EC50 [2]: 10 nM
- β2 Intrinsic activity [2]: 0.9

Structure (SMILES): Cc1nc(C(=O)N2CCOC3(CCN(Cc4cccc(CCNCC(O)c5ccc(O)c6c5OCC(=O)N6)c4)CC3)C2)cs1 (single isomer, unassigned; isomer 2) [Example 13, 5-Hydroxy-8-(1-hydroxy-2-(3-((4-(2-methylthiazole-4-carbonyl)-1-oxa-4,9-diazaspiro[5.5]undecan-9-yl)methyl)phenethylamino)ethyl)-2H-benzo[b][1,4]oxazin-3(4H)-one ditrifluoroacetate, Isomer 2]
- IC50 [1]: 0.0794 nM
- EC50 [2]: 39.8 nM
- β2 Intrinsic activity [2]: 0.8

Structure (SMILES): CC(C)c1ncc(C(=O)N2CCOC3(CCN(CCOc4ccc(CNC[C@H](O)c5ccc(O)c6[nH]c(=O)sc56)cc4)CC3)C2)s1 [Example 114, (R)-4-Hydroxy-7-(1-hydroxy-2-(4-(2-(4-(2-isopropylthiazole-5-carbonyl)-1-oxa-4,9-diazaspiro[5.5]undecan-9-yl)ethoxy)benzylamino)ethyl)benzo[d]thiazol-2(3H)-one ditrifluoracetate]
- IC50 [1]: 316 nM
- EC50 [2]: 63.1 nM
- β2 Intrinsic activity [2]: 0.9

Structure (SMILES): CC(C)c1nc(C(=O)N2CCOC3(CCN(Cc4cc(Cl)cc(CCNC[C@H](O)c5ccc(O)c6[nH]c(=O)sc56)c4)CC3)C2)cs1 [Example 52, (R)-7-(2-(3-Chloro-5-((4-(2-isopropylthiazole-4-carbonyl)-1-oxa-4,9-diazaspiro[5.5]undecan-9-yl)methyl)phenethylamino)-1-hydroxyethyl)-4-hydroxybenzo[d]thiazol-2(3H)-one ditrifluoroacetate]
- IC50 [1]: 7.94 nM
- EC50 [2]: 5.01 nM
- β2 Intrinsic activity [2]: 0.9

Structure (SMILES): CCc1cc(C(=O)N2CCOC3(CCN(Cc4cc(CCNC[C@H](O)c5ccc(O)c6[nH]c(=O)sc56)ccc4F)CC3)C2)cs1 [Example 100, (R)-7-(2-(3-((4-(5-Ethylthiophene-3-carbonyl)-1-oxa-4,9-diazaspiro[5.5]undecan-9-yl)methyl)-4-fluorophenethylamino)-1-hydroxyethyl)-4-hydroxybenzo[d]thiazol-2(3H)-one ditrifluoroacetate]
- IC50 [1]: 1.58 nM
- EC50 [2]: 5.01 nM
- β2 Intrinsic activity [2]: 0.9

Structure (SMILES): CC(C)Cc1nc(C(=O)N2CCOC3(CCN(Cc4cccc(CCNC[C@H](O)c5ccc(O)c6[nH]c(=O)sc56)c4)CC3)C2)cs1 [Example 84, (R)-4-Hydroxy-7-(1-hydroxy-2-(3-((4-(2-isobutylthiazole-4-carbonyl)-1-oxa-4,9-diazaspiro[5.5]undecan-9-yl)methyl)phenethylamino)ethyl)benzo[d]thiazol-2(3H)-one ditrifluoroacetate]
- IC50 [1]: 0.794 nM
- EC50 [2]: 5.01 nM
- β2 Intrinsic activity [2]: 0.9

Structure (SMILES): Cc1nc(C(=O)N2CCOC3(CCN(CCOc4ccc(CNC[C@H](O)c5ccc(O)c6[nH]c(=O)sc56)cc4)CC3)C2)cs1 [Example 1, (R)-4-Hydroxy-7-(1-hydroxy-2-(4-(2-(4-(2-methylthiazole-4-carbonyl)-1-oxa-4,9-diazaspiro[5.5]undecan-9-yl)ethoxy)benzylamino)ethyl)benzo[d]thiazol-2(3H)-one ditrifluoroacetate]
- IC50 [1]: 3.16 nM
- EC50 [2]: 63.1 nM
- β2 Intrinsic activity [2]: 0.8

Structure (SMILES): O=C(c1cc2ccccc2s1)N1CCOC2(CCN(Cc3cccc(CCNC[C@H](O)c4ccc(O)c5[nH]c(=O)sc45)c3F)CC2)C1 [Example 79, (R)-7-(2-(3-((4-(Benzo[b]thiophene-2-carbonyl)-1-oxa-4,9-diazaspiro[5.5]undecan-9-yl)methyl)-2-fluorophenethylamino)-1-hydroxyethyl)-4-hydroxybenzo[d]thiazol-2(3H)-one ditrifluoroacetate]
- IC50 [1]: 126 nM
- EC50 [2]: 6.31 nM
- β2 Intrinsic activity [2]: 0.9

Reference: patent US8148373B2, “Compounds” (AstraZeneca AB, priority 2008, dated 2012)
